Kd and Activity data for three compounds are collected here from ChEMBL document CHEMBL5360631, “Creation of a Peptide Antagonist of the GFRAL-RET Receptor Complex for the Treatment of GDF15-Induced Malaise” (J Med Chem, 2023).

Data set [1] deals with T1, GDNF family receptor alpha-like (Homo sapiens, UniProt Q6UXV0).
T1 sequence (Q6UXV0 whole entry): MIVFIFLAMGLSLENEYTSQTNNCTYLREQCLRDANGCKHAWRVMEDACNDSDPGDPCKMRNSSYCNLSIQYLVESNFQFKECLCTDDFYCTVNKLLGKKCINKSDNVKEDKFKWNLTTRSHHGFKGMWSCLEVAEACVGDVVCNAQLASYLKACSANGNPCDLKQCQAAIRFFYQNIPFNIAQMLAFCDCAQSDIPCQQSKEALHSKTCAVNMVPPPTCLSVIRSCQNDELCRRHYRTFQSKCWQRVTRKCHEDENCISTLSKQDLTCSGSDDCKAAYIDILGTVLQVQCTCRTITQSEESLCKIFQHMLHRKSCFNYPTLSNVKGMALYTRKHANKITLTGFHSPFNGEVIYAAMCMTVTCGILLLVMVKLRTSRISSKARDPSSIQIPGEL
The data set can be described thus: Binding affinity to C-terminal polyhis-tagged recombinant human GFRAL (19 to 351 residues) expressed in HEK293 cells assessed as dissociation constant by SPR analysis.

Data set [2] is described as follows: Toxicity in Sprague-Dawley rat assessed as food intake at 300 to 3000 pmol, ICV measured for 24 hrs. As to conditions: in vivo, icv_or_intrathecal, dose 300-3000 pmol.
Data set [3] is described as follows: Toxicity in Sprague-Dawley rat assessed as kaolin intake at 300 to 3000 pmol, ICV measured for 24 hrs. As to conditions: in vivo, icv_or_intrathecal, dose 300-3000 pmol.
Data set [4] concerns Rattus norvegicus. The experiment in a line: Effect on pica behaviour in Sprague-Dawley rat assessed as reduction in GDF-15-induced kaolin intake pretreated intracerebroventricularly followed by GDF-15 treatment measured for 24 hrs. Format: functional. As to conditions: dose 300-3000 pmol, route icv.
In data set [5] the test system is Rattus norvegicus. The experiment in a line: Effect on GDF-15-induced anorexia in Sprague-Dawley rat at 300 to 3000 pmol pre-treated intracerebroventricularly followed by GDF-15 treatment measured for 24 hrs. As to conditions: dose 300-3000 pmol, route icv. The data set is classed as functional.
The nature of data set [6]: Toxicity in Sprague-Dawley rat assessed as food intake at 30 to 100 nmol/kg, IP measured for 24 hrs. As to conditions: in vivo, dose 30-100 nmol/kg.
Data set [7] is described as follows: Toxicity in Sprague-Dawley rat assessed as kaolin intake at 30 to 100 nmol/kg, IP measured for 24 hrs. As to conditions: in vivo, dose 30-100 nmol/kg.
Data set [8] concerns Rattus norvegicus. The data set can be described thus: Effect on GDF-15-induced anorexia in Sprague-Dawley rat at 30 to 100 nmol/kg pretreated intraperitoneally followed by GDF-15 treatment measured for 24 hrs. The data set is classed as functional. As to conditions: dose 30-100 nmol/kg, route ip.
The test system of data set [9] is Rattus norvegicus. The experiment in a line: Effect on pica behaviour in Sprague-Dawley rat assessed as reduction in GDF-15-induced kaolin intake at 100 nmol/kg pretreated intraperitoneally followed by GDF-15 treatment measured for 24 hrs. As to conditions: route ip. The data set is classed as functional.
Data set [10] in a line: Toxicity in Sprague-Dawley rat assessed as kaolin intake at 100 nmol/kg, IP measured for 24 hrs. As to conditions: in vivo.
A short description of data set [11]: Toxicity in Sprague-Dawley rat assessed as food intake at 100 nmol/kg, IP measured for 24 hrs. As to conditions: in vivo.
For data set [12], the system named is Rattus norvegicus. The experiment in a line: Effect on pica behaviour in Sprague-Dawley rat assessed as reduction in cisplatin-induced kaolin intake at 100 nmol/kg, IP pretreated for 15 mins followed by cisplatin treatment measured for 6 hrs. The data set is classed as functional. As to conditions: time 6.25 hrs.
Data set [13] is described as follows: Toxicity in Sprague-Dawley rat assessed as drug tolerance at 100 nmol/kg, IP measured for 24 hrs. As to conditions: in vivo.
Data set [14] is described as follows: Toxicity in Sprague-Dawley rat assessed as drug tolerance at 100 nmol/kg, IP measured for 24 hrs in presence of Ondansetron. As to conditions: in vivo.
For data set [15], the system named is Rattus norvegicus. The data set can be described thus: Effect on pica behaviour in Sprague-Dawley rat assessed as food intake at 100 nmol/kg, IP measured for 24 hrs. Format: functional.
For data set [16], the system named is Rattus norvegicus. The experiment in a line: Effect on pica behaviour in Sprague-Dawley rat assessed as kaolin intake at 100 nmol/kg, IP measured for 24 hrs. The data set is classed as functional.
The test system of data set [17] is Rattus norvegicus. The experiment in a line: Effect on pica behaviour in Sprague-Dawley rat assessed as food intake at 100 nmol/kg, IP measured for 24 hrs in presence of Ondansetron. Format: functional.
The test system of data set [18] is Rattus norvegicus. The experiment in a line: Effect on pica behaviour in Sprague-Dawley rat assessed as kaolin intake at 100 nmol/kg, IP measured for 24 hrs in presence of Ondansetron. Format: functional.
Data set [19] concerns Rattus norvegicus. The data set can be described thus: Effect on pica behaviour in Sprague-Dawley rat assessed as reduction in cisplatin-induced kaolin intake at 100 nmol/kg, IP bid measured for 24 hrs. Format: functional.
Data set [20] can be described thus: Toxicity in cisplatin-induced nausea and vomiting Sprague-Dawley rat model assessed as additive effect at 100 nmol/kg, IP bid measured for 24 hrs in presence of Ondansetron. As to conditions: in vivo.
In data set [21] the test system is Rattus norvegicus. The data set can be described thus: Effect on pica behaviour in Sprague-Dawley rat assessed as reduction in cisplatin-induced kaolin intake at 2 mg/kg, IP measured for 24 hrs. Format: functional, organism-based.
Data set [22] relates to Rattus norvegicus. The data set can be described thus: Effect on pica behaviour in Sprague-Dawley rat assessed as reduction in cisplatin-induced anorexia at 100 nmol/kg, IP bid measured for 24 hrs in presence of Ondansetron. The data set is classed as functional.
The target of data set [23] is T1, GDNF family receptor alpha-like. The experiment in a line: Binding affinity to C-terminal polyhis-tagged recombinant human GFRAL (19 to 351 residues) expressed in HEK293 cells assessed as dissociation constant by flow cytometric analysis. The data set is classed as cell-based.
The target is the same in data set [24]. The experiment in a line: Binding affinity to C-terminal polyhis-tagged recombinant human GFRAL (19 to 351 residues) expressed in HEK293 cells assessed as dissociation constant with increasing enzyme concentration by SPR analysis. On the technique in general: SPR reads the build-up and loss of mass on a sensor chip optically.

For orientation: Kd means the equilibrium constant for the complex coming apart.

Activity calls are given as the source filed them. The calls are words filed in the database; no cut-off is given here. Numbered stars: 1 amine (or outer) side, 2 acyl side, 3 side chain; on linkers, the order of the positions; unused ones are H or OH. Square brackets hold non-standard residues; d marks the D form. Side chains are listed from the residue outwards. Peptide text beside a SMILES is read from it. * marks the point of attachment. X4 = CN1/C(=C/C=C/C=C/C2=[N+](CCCCCC(=O)*)c3ccc(S(=O)(=O)[O-])cc3C2(C)C)C(C)(C)c2cc(S(=O)(=O)O)ccc21; X3 = C[C@@H](O)[C@@H](C(=O)[*:2])N(CCCn1nnc2c1-c1ccccc1CN([*:3])c1ccccc1-2)[*:1]; Biotin = O=C1N[C@H]2[C@H](CS[C@H]2CCCCC(=O)*)N1; GABA = NCCCC(=O)O

Take `CC[C@H](C)[C@H](NC(=O)[C@H](CC(C)C)NC(=O)[C@H](CCC(=O)O)NC(=O)[C@H](CCC(=O)O)NC(=O)[C@H](CCCCN)NC(=O)[C@@H](N)[C@@H](C)O)C(=O)N[C@@H](Cc1c[nH]cn1)C(=O)N[C@@H](C)C(=O)N[C@@H](Cc1c[nH]cn1)C(=O)N[C@@H](C)C(=O)N[C@@H](CC(=O)O)C(=O)N1CCC[C@H]1C(=O)N[C@@H](CCSC)C(=O)N[C@H](C(=O)N[C@@H](CC(C)C)C(=O)N[C@H](C(=O)N[C@@H](CCC(N)=O)C(=O)N[C@@H](CCCCN)C(=O)N[C@H](C(=O)N[C@@H](CC(=O)O)C(=O)N[C@H](C(=O)NCC(=O)N[C@H](C(=O)N[C@@H](CO)C(=O)N[C@@H](CC(C)C)C(=O)N[C@@H](CCC(N)=O)C(=O)N[C@H](C(=O)N[C@@H](Cc1ccc(O)cc1)C(=O)N[C@@H](CC(=O)O)C(=O)O)[C@@H](C)O)C(C)C)[C@@H](C)O)[C@@H](C)O)[C@@H](C)CC)C(C)C` (H-TKEELIHAHADPMVLIQKTDTGVSLQTYD-OH): the Kd in data set [1] worked out at 179000 nM. The Activity result in data set [2], in data set [3], in data set [6], in data set [7], in data set [10] and in data set [11] was “Non-Toxic” in each case. Further, the Activity entry in [13], in data set [14] and in data set [20] was “Non-Toxic” in each case. For the same compound, the outcome in data set [4], in [9], in data set [12], in data set [19], in data set [21] and in data set [22] was Active. In addition, the result in data set [5], in [8], in [15], in data set [16], in data set [17] and in data set [18] was inactive.

Turning to `CC[C@H](C)[C@H](NC(=O)[C@H](CC(C)C)NC(=O)[C@H](CCC(=O)O)NC(=O)[C@H](CCC(=O)O)NC(=O)[C@H](CCCCN)NC(=O)[C@@H](NCCCn1nnc2c1-c1ccccc1CN(C(=O)CCCNC(=O)CCCCC[N+]1=C(/C=C/C=C/C=C3/N(C)c4ccc(S(=O)(=O)O)cc4C3(C)C)C(C)(C)c3cc(S(=O)(=O)[O-])ccc31)c1ccccc1-2)[C@@H](C)O)C(=O)N[C@@H](Cc1c[nH]cn1)C(=O)N[C@@H](C)C(=O)N[C@@H](Cc1c[nH]cn1)C(=O)N[C@@H](C)C(=O)N[C@@H](CC(=O)O)C(=O)N1CCC[C@H]1C(=O)N[C@@H](CCSC)C(=O)N[C@H](C(=O)N[C@@H](CC(C)C)C(=O)N[C@H](C(=O)N[C@@H](CCC(N)=O)C(=O)N[C@@H](CCCCN)C(=O)N[C@H](C(=O)N[C@@H](CC(=O)O)C(=O)N[C@H](C(=O)NCC(=O)N[C@H](C(=O)N[C@@H](CO)C(=O)N[C@@H](CC(C)C)C(=O)N[C@@H](CCC(N)=O)C(=O)N[C@H](C(=O)N[C@@H](Cc1ccc(O)cc1)C(=O)N[C@@H](CC(=O)O)C(=O)O)[C@@H](C)O)C(C)C)[C@@H](C)O)[C@@H](C)O)[C@@H](C)CC)C(C)C` (H-[X3]([GABA-X4])KEELIHAHADPMVLIQKTDTGVSLQTYD-OH), in data set [23], the equilibrium dissociation constant (Kd) came to 8.98 nM.

As for `CC[C@H](C)[C@H](NC(=O)[C@H](CC(C)C)NC(=O)[C@H](CCC(=O)O)NC(=O)[C@H](CCC(=O)O)NC(=O)[C@H](CCCCN)NC(=O)[C@@H](NC(=O)CCCC[C@@H]1SC[C@@H]2NC(=O)N[C@@H]21)[C@@H](C)O)C(=O)N[C@@H](Cc1c[nH]cn1)C(=O)N[C@@H](C)C(=O)N[C@@H](Cc1c[nH]cn1)C(=O)N[C@@H](C)C(=O)N[C@@H](CC(=O)O)C(=O)N1CCC[C@H]1C(=O)N[C@@H](CCSC)C(=O)N[C@H](C(=O)N[C@@H](CC(C)C)C(=O)N[C@H](C(=O)N[C@@H](CCC(N)=O)C(=O)N[C@@H](CCCCN)C(=O)N[C@H](C(=O)N[C@@H](CC(=O)O)C(=O)N[C@H](C(=O)NCC(=O)N[C@H](C(=O)N[C@@H](CO)C(=O)N[C@@H](CC(C)C)C(=O)N[C@@H](CCC(N)=O)C(=O)N[C@H](C(=O)N[C@@H](Cc1ccc(O)cc1)C(=O)N[C@@H](CC(=O)O)C(=O)O)[C@@H](C)O)C(C)C)[C@@H](C)O)[C@@H](C)O)[C@@H](C)CC)C(C)C` (Biotin-TKEELIHAHADPMVLIQKTDTGVSLQTYD-OH), the dissociation constant Kd in data set [24] is 74.1 nM.
